IC50 and inhibition data for seven molecules are collected here from paper PMC12133982, “Predominant T-cell epitopes of SARS-CoV-2 restricted by multiple prevalent HLA-B and HLA-C allotypes in Northeast Asia” (Frontiers in Immunology, 2025).

Assay [1] has as its target HLA-B1502 (Homo sapiens, UniProt P01889, A329T/A93T/A95T/C349S/D201E/D98Y/E187L/E204Q/E69M/E70A/H137Y/K202T/L119I/Q94N/R155S/R180L/S121R/S35A/S48A/T118I/V306I/V36M/Y140S/Y91S). Nature of the assay: Competitive peptide binding assay, CIR-B1502. As to conditions: HMy2.CIR-B1502 cells, reference Cy5-[…], class from inhibition at 5 and 15 μM, flow cytometry MFI; read-out: Binding affinity with HLA-B1502. The procedure:
(§1) Then, competitive peptide binding assays were performed.

In assay [2] the target is HLA-B1302 (Homo sapiens, UniProt P01889, A65T/A93T/A95T/D138N/D201E/D98Y/E176V/E204Q/E69M/E70A/G107R/K202T/L105A/L119W/N104T/N87E/Q94N/R106L/R155S/R169L/R180L/S101N/S121T/S35A/S48T/V127L/V36M/Y140L/Y91S). Nature of the assay: Competitive peptide binding assay, CIR-B1302. To be noted: HMy2.CIR-B1302 cells, reference Cy5-MMWYWGPSL, class from inhibition at 5 and 15 μM, flow cytometry MFI; read-out: Binding affinity with HLA-B1302. On the procedure:
as §1

In assay [3] the target is HLA-B1501 (Homo sapiens, UniProt P01889, A329T/A93T/A95T/C349S/D201E/D98Y/E187L/E204Q/E69M/E70A/K202T/N87E/Q94N/R155S/R180W/S121R/S35A/S48A/V306I/V36M/Y140S/Y91S). Nature of the assay: Competitive peptide binding assay, CIR-B1501. To be noted: HMy2.CIR-B1501 cells, reference Cy5-[…], class from inhibition at 5 and 15 μM, flow cytometry MFI; read-out: Binding affinity with HLA-B1501. The procedure:
as §1

The target in assay [4] is HLA-B3501 (Homo sapiens, UniProt P01889, A329T/A93T/A95T/C349S/D201E/D98Y/E176V/E187L/E204Q/E69T/I218V/K202T/L119I/Q94N/R155S/R180L/S121R/S35A/S48A/T118I/V127L/V306I/V36M/Y140S/Y91F). The assay is described as follows: Competitive peptide binding assay, CIR-B3501. To be noted: HMy2.CIR-B3501 cells, reference Cy5-[…], class from inhibition at 5 and 15 μM, flow cytometry MFI; read-out: Binding affinity with HLA-B3501. On the procedure:
as §1

The target of assay [5] is HLA-B4601 (Homo sapiens, UniProt P01889, A329T/A93R/C349S/D201E/E100V/E187L/E204Q/E69M/E70A/I90K/K202T/N87E/R155S/R180W/S121R/S35A/S48A/V306I/V36M/Y140S). The assay is described as follows: Competitive peptide binding assay, CIR-B4601. As to conditions: for IC50: HMy2.CIR-B4601 cells, reference Cy5-[…], class from inhibition at 5 and 15 μM, flow cytometry MFI, read-out: Binding affinity with HLA-B4601. On the procedure: as §1

Assay [6] concerns the target HLA-B5801 (Homo sapiens, UniProt P01889, A329T/C349S/D201E/D98Y/E176V/E187L/E204Q/E69T/G107R/I218V/I90N/K202T/L105A/L119I/N104I/N87E/Q89R/Q94S/R106L/R155S/R180L/R86G/S101N/S121R/S35A/S48A/T118I/V127L/V306I/V36M/Y140S/Y91M). Nature of the assay: Competitive peptide binding assay, CIR-B5801. As to conditions: HMy2.CIR-B5801 cells, reference Cy5-[…], class from inhibition at 5 and 15 μM, flow cytometry MFI; read-out: Binding affinity with HLA-B5801. On the procedure: as §1

Peptide text beside a SMILES is read from it. Some results are limits rather than exact numbers.

Turning to `CC(C)[C@H](NC(=O)[C@@H](N)Cc1ccccc1)C(=O)N[C@@H](CO)C(=O)N[C@@H](CC(N)=O)C(=O)NCC(=O)N[C@H](C(=O)N[C@@H](Cc1c[nH]cn1)C(=O)N[C@@H](Cc1c[nH]c2ccccc12)C(=O)N[C@@H](Cc1ccccc1)C(=O)O)[C@@H](C)O` [Epitope Y250] (H-FVSNGTHWF-OH; N-terminus and C-terminus assumed), the IC50 in assay [1], in assay [2], in assay [3] and in assay [4] was more than 15 µM throughout.
As to `CSCC[C@H](NC(=O)[C@H](CO)NC(=O)[C@H](CCCNC(=N)N)NC(=O)[C@@H](NC(=O)[C@H](CCCNC(=N)N)NC(=O)[C@H](C)NC(=O)[C@@H](N)Cc1ccccc1)[C@@H](C)O)C(=O)N[C@@H](Cc1c[nH]c2ccccc12)C(=O)N[C@@H](CO)C(=O)N[C@@H](Cc1ccccc1)C(=O)O` [Epitope Y47] (H-FARTRSMWSF-OH; N-terminus and C-terminus assumed), the IC50 was more than 15 µM in assay [5]; more than 15 µM in assay [6]; less than 5 µM in assay [1]; more than 15 µM in assay [2]; less than 5 µM in assay [4].
In the case of `CC[C@H](C)[C@H](NC(=O)[C@H](CO)NC(=O)[C@H](CCC(N)=O)NC(=O)[C@H](CO)NC(=O)[C@H](C)NC(=O)[C@@H](N)C(C)C)C(=O)N[C@H](C(=O)N[C@@H](C)C(=O)N[C@@H](Cc1ccc(O)cc1)C(=O)O)[C@@H](C)CC` [Epitope Y151] (H-VASQSIIAY-OH; N-terminus and C-terminus assumed), the IC50 in assay [6] was more than 15 µM; in assay [2] it was less than 5 µM; in assay [3] it was more than 15 µM; in assay [4], less than 5 µM.
On to `CC[C@H](C)[C@H](NC(=O)[C@@H](NC(=O)[C@H](CCC(=O)O)NC(=O)[C@H](CCC(=O)O)NC(=O)[C@@H](N)Cc1c[nH]cn1)[C@@H](C)O)C(=O)N[C@@H](Cc1ccc(O)cc1)C(=O)N[C@@H](CC(N)=O)C(=O)N[C@@H](CC(C)C)C(=O)N[C@@H](CC(C)C)C(=O)O` [Epitope Y199] (H-HEETIYNLL-OH; N-terminus and C-terminus assumed), for which the IC50 was more than 15 µM in assay [5], 5 to 15 µM in assay [6], 5 to 15 µM in assay [2] and less than 5 µM in assay [4]. The inhibition at 5 µM in assay [5] (read-out: Inhibition % of Cy5-reference peptide binding, CIR-B4601, 5μM peptide) was determined as 24.9%. Moreover, in assay [5] (read-out: Inhibition % of Cy5-reference peptide binding, CIR-B4601, 15μM peptide), the inhibition at 15 µM was found to be 44.1%.
Regarding `C[C@H](NC(=O)[C@H](Cc1ccc(O)cc1)NC(=O)[C@H](C)NC(=O)[C@@H](N)Cc1ccccc1)C(=O)N[C@@H](CC(N)=O)C(=O)N[C@@H](CCCNC(=N)N)C(=O)N[C@@H](CC(N)=O)C(=O)N[C@@H](CCCNC(=N)N)C(=O)N[C@@H](Cc1ccccc1)C(=O)O` [Epitope Y49] (H-FAYANRNRF-OH; N-terminus and C-terminus assumed), the IC50 in assay [6] was 5 to 15 µM; in assay [2], more than 15 µM; in assay [3], more than 15 µM; in assay [4], less than 5 µM.
For the molecule `CC(C)C[C@H](N)C(=O)N1CCC[C@H]1C(=O)N[C@@H](CC(N)=O)C(=O)N[C@@H](CC(N)=O)C(=O)N[C@H](C(=O)N[C@@H](C)C(=O)N[C@@H](CO)C(=O)N[C@@H](Cc1c[nH]c2ccccc12)C(=O)N[C@@H](Cc1ccccc1)C(=O)O)[C@@H](C)O` [Epitope Y17] (H-LPNNTASWF-OH; N-terminus and C-terminus assumed), the IC50 is more than 15 µM in assay [6], more than 15 µM in assay [2], more than 15 µM in assay [3] and less than 5 µM in assay [4].
For `C[C@@H](O)[C@H](NC(=O)CNC(=O)[C@H](CCC(N)=O)NC(=O)[C@@H](N)CCCNC(=N)N)C(=O)N[C@@H](CC(=O)O)C(=O)N[C@@H](Cc1ccc(O)cc1)C(=O)N[C@@H](CCCCN)C(=O)N[C@@H](Cc1c[nH]cn1)C(=O)N[C@@H](Cc1c[nH]c2ccccc12)C(=O)O` [Epitope Y222] (H-RQGTDYKHW-OH; N-terminus and C-terminus assumed), the IC50 was more than 15 µM in assay [2] and 5 to 15 µM in assay [3].
